Source: patent US20220218667A1, “DUAL INHIBITORS OF SOLUBLE EPOXIDE HYDROLASE AND METHODS OF USE THEREOF” (OROX Biosciences, Inc., priority 2019, published 2022)
“Also recorded” adds a separate entry of the source.

Legend:
human sEH = target: T1, human sEH (Homo sapiens, UniProt P34913); experiment: sEH inhibition IC50, fluorescent-based assay with purified recombinant sEH; format: biochemical; details: in vitro, relative to OX1
T1 sequence (P34913 1-555): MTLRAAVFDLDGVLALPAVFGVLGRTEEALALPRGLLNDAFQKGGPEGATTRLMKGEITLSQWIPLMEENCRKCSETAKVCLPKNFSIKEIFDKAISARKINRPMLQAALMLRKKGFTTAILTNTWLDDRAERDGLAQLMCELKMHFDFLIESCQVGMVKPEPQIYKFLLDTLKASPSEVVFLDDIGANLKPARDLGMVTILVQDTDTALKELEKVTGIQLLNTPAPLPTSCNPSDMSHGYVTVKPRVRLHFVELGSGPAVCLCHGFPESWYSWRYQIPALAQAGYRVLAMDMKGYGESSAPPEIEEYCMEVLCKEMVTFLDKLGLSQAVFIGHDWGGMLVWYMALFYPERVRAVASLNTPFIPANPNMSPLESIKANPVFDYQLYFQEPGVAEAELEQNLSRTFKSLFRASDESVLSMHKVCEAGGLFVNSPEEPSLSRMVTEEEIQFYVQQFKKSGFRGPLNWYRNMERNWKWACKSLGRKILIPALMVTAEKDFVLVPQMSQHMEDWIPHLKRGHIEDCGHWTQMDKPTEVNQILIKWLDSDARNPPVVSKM
Procedure: sEH inhibition IC50 values for the compounds presented herein can be assayed by a recombinant affinity assay using purified sEHs, from human, mouse or rat, in a fluorescent-based assay. In such an assay, enzymes, e.g., ˜1 nM human sEH, are incubated with a potential inhibitors for 5 min in 25 mM Bis-Tris/HCl buffer (200 μL; pH 7.0) at 30° C. before a substrate, e.g., cyano(2-methoxynaphthalen-6-yl)methyl trans-(3-phenyl-oxyran-2-yl)methyl carbonate, (CMNPC) is added ([S]final=5 μM).

COX-2 = target: T2, COX-2 (Homo sapiens, UniProt P35354); experiment: COX-2 inhibition IC50, COX Fluorescent Inhibitor Screening Assay; format: biochemical
T2 construct: purchased Cayman Chemical 700100
T2 sequence (P35354 18-604): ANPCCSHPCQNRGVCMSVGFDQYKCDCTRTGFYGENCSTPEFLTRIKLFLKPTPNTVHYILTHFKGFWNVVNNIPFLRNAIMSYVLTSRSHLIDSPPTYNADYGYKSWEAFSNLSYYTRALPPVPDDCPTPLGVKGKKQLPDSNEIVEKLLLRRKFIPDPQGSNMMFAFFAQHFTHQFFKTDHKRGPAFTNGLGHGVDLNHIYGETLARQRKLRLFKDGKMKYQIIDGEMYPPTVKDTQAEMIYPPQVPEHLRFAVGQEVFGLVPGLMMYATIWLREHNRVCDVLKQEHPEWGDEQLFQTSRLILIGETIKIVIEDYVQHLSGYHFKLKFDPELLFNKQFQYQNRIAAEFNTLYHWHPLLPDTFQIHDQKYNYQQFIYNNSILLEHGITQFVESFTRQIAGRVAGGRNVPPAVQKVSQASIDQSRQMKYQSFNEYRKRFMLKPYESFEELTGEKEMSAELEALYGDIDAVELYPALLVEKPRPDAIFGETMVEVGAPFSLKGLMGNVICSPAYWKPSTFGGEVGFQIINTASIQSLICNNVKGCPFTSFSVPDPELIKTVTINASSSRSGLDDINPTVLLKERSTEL
Procedure: A COX Fluorescent Inhibitor Screening Assay Kit (catalog number 700100, Cayman Chemical, Ann Arbor, Mich.) is useful for assaying the ability of the compounds provided herein to inhibit ovine COX-1 and human recombinant COX-2 (% inhibition at 100 μM and IC50 values (M), respectively). Stock solutions of test compounds are dissolved in a minimum volume of DMSO. 10 μl of various concentrations of the test compound solutions, e.g., [I]final between 0.01 and 100 μM, are added to a series of supplied reaction buffer solutions (150 μl, 100 mM Tris-HCl, pH 8.0) with either COX-1 or COX-2 (10 μl) enzyme in the presence of Heme (10 μl) and a fluorometric substrate (10 μl). The reactions are initiated by quickly adding 10 μl of arachidonic acid solution and then incubating the system for two minutes at room temperature. Fluorescence of resorufin, which is produced by the reaction between PGG2 and fluorometric substrate, ADHP (10-acetyl-3,7-dihydroxyphenoxazine), is analyzed with an excitation wavelength of 535 nm and an emission wavelength of 590 nm. The intensity of this fluorescence is proportional to the amount of resorufin, which is proportional to the amount of PGG2 present in the well during the incubation. Percent inhibition is calculated by comparison from the 100% initial activity sample value (no inhibitor).

[1] = tested on: C57B/L6 mice exposed to bleomycin; experiment: Example 1: prophylactic treatment of mice exposed to bleomycin (IPF model); format: in vivo, mouse; details: OX1, OX3, Nintedanib 30 mg/kg QD, Pirfenidone 100 mg/kg BID
From the text: 4-(5-phenyl-3-{3-[3-(4-trifluoromethyl-phenyl)-ureido]-propyl}-pyrazol-1-yl)-benzenesulfonamide (PTUPB) [termed OX1] was compared to Pirfenidone, Nintedanib, and GSK225629415 [termed OX3] for treatment of IPF using an established model for IPF treating, which is prophylactic treatment of mice exposed to the chemotherapeutic agent bleomycin. […] Pirfenidone and Nintedanib are standard of care for the treatment of idiopathic pulmonary fibrosis and served as reference compounds in the experiment.
C57B/L6 mice were used in the experiments. When used, Bleomycin was administered intra-oropharyngeally, 1.5 U/kg, QD per established protocol. The test articles were dosed via oral gavage in 200 μL/day vehicle. The doses and formulations of test articles were selected based on the literature describing the lowest doses capable of eliciting pharmacological action.
Animals were dosed with the test articles (or vehicle) starting at day −1 to day 20. On day 1, daily doses of Bleomycin commenced in all but group 1 (negative control) which received the vehicle. On day 21, all animals were weighed and sacrificed. After lungs and bronco-alveolar lavage fluid (BALF) were harvested, they were prepared according to standard procedures for further analysis and histology. All animals were assessed twice a week for body weight and overall appearance. Efficacy endpoints measured in this study included lung weight, total leukocytes, and histology as determined by Mason's Trichrome stain and scored using a modified Ashcroft score.
The following parameters were measured in bronchoalveolar fluid (BALF): 1) soluble collagen and 2) differential leukocyte counts for different leukocyte populations.
After weighing and removal of BALF from the lungs, they were inflated and fixed using 10% neutral buffered formalin for histopathology analysis. Fifty-four formalin-fixed lung samples from mice were submitted to HistoTox Labs and were processed routinely. Two slides from each block were sectioned and stained with hematoxylin and eosin (H&E) or Masson's trichrome. Glass slides were evaluated with light microscopy by a board-certified veterinary pathologist. Lung sections were scored according to the modified Ashcroft scale.

[2] = day 21, compared to vehicle (Group 2)

Compound: CNc1nc(C)nc(N[C@H]2CCC[C@@H](C(=O)NCc3ccc(C#N)cc3C(F)(F)F)C2)n1 [OX3]
- fold more potent against sEH than OX1 (human sEH): roughly 75 fold
- IC50 (COX-2): > 1000 nM
- times less potent on COX-2 than OX1 (COX-2; in vitro, relative to OX1): at least 10 times
- body weight course over 21 days ([1]; bleomycin mice, oral gavage day -1 to 20): lost the least weight; also recorded: sustained weight loss
- neutrophil migration into BALF ([1]; day 21, oral): somewhat effective
- number of lymphocytes in BALF ([1]; day 21, oral): trend increasingly lower
- number of macrophages in BALF ([1]; day 21, oral): more macrophages
- total cell (leukocyte) count in BALF ([1]; day 21, oral): did not demonstrate the same level of reduction
- increased collagen (fibrosis) score, trichrome [1, 2]: slightly lower
- mean Ashcroft score (lung histology) [1, 2]: slightly lower
- mean score for mixed peribronchiolar/perivascular inflammation [1, 2]: lower
